Test results from patent publication US7247321B2, “Skin whitening compositions containing asparagus extract” (Access Business Group International LLC, priority 2003, dated 2007).

System: mouse derived immortalized melanocyte cells (M3)
Assay: Suppression of melanogenesis in vitro (melanin extracted, optical density at 405 nm; visual count of melanized cells)
Format: cell-based
Conditions: Treatment Dose 0.100%; M3 melanocytes, treated days 1, 3, 5; melanin extracted day 6, OD 405 nm

SMILES: O=C1O[C@H]([C@@H](O)CO)C(O)=C1O [Ascorbic Acid]
- % Control Melanin: 51%
